We go through 85 molecules from a melting point compilation (Tetko et al.; mined from patent text by program, amines drawn as free bases though some values may be those of a salt).

As usually defined, the melting point is the temperature, or range, at which the solid turns liquid. Take `COCCCN(C(=O)N(CCCl)N=O)C1(O)C(OCC(C)C)OCC(O)C1O` (stereo not given): the melting point lay in the range of 84 to 86 °C.
In turn, `COc1ccc(-c2c(Cl)c(CN3C(=O)CSC3=O)nc3sc4c(c23)CCSC4)cc1` came in with a melting point of 208 to 209 °C.
To `CC(C)NS(=O)(=O)c1ccc(-c2ccc3nnn(Cc4ccc5ncccc5c4)c3n2)cc1` belongs 154 to 156 °C.
In the case of `ON=C1CCC2(CC1)OC(c1ccccc1)c1ccccc12` (stereo not given) it was 172 to 175 °C.
In the case of `CCCc1[nH]c2cc(C(=O)O)ccc2c1C(=O)C1CCC1` it was 244 to 245 °C; in that of `O=C(Nc1ccc(CN2C(=O)[C@H]3CCC[C@H]3N(C(=O)CN3C(=O)c4ccccc4C3=O)c3ccccc32)cc1)c1cccc(F)c1` (relative stereo), 256 to 259 °C; in that of `CN(C)C1(c2cccs2)CC=C(c2[nH]c3ccccc3c2CCc2ccncc2)CC1` (stereo not given), 189 to 193 °C.
The molecule `O=C1CCC2=C1C(c1ccc(Br)s1)C1=C(CCS1)N2` (stereo not given) registered a melting point of 246 to 247 °C.
To `C#CCN(Cc1ccccc1)S(=O)(=O)c1ccc([N+](=O)[O-])cc1[N+](=O)[O-]` belongs 91 to 92 °C.
On to `O=C1c2ccccc2C(=O)N1Cc1noc(-c2ncn3c2[C@@H]2CCN2C(=O)c2c-3cccc2C(F)(F)F)n1`, for which the melting point was 243 to 245 °C.
To `O=C(Nc1cccc(Oc2ccc(Cl)cc2)c1)c1ccn2c1CSC2c1cccnc1` (stereo not given) belongs 140 °C; to `OCCCCOc1cccc(/C=C/c2nc3ccccc3s2)c1`, 88 to 90 °C; to `O=C(O)CCc1cnoc1-c1ccc2c(c1)OCO2`, 150 to 151 °C.
Take `Oc1nc2cc(Cl)c3nc[nH]c3c2nc1O`: the melting point was > 300 °C.
Take `CC1=CCc2cccc(OCC3CN(C(C)C)CCO3)c21` (stereo not given): the melting point is 114 to 116 °C.
In the case of `COCCOc1cc2c(cc1C#Cc1ccccc1)NC(=O)CC(c1cccc(C#N)c1)=N2` it was 174 to 176 °C; in that of `Cc1nc2c(c(=O)[nH]1)-c1ccc(Cl)cc1C(c1ccccc1)=[N+]([O-])C2`, 219 to 221 °C.
In the case of `Cc1c(NC(=O)CC(C)(C)C)c(C)c2c(c1-c1ccoc1)OCC2c1ccc(C(C)C)cc1` (stereo not given) it was 183 to 185 °C.
To `COC(=O)C12C3C4C1(C(=O)OC)C1(Cl)C2C3(C(=O)OC)C41C(=O)OC` (stereo not given) belongs 134 to 135 °C.
Consider `Cc1ccc([N+](=O)[O-])cc1Nc1ncc(-c2ccc(C#N)cc2)o1`, for which the melting point is > 228 °C.
To `Cc1ccc(CNC(=O)c2sc(N3CCN(Cc4ccccc4)C3=O)nc2C)o1` belongs 138 to 139 °C.
In turn, `CC(C)c1ccc(S(=O)(=O)n2c(COC(C)(C)C(=O)O)cc3cc(Cl)ccc32)cc1` came in with a melting point of 60 °C.
Molecule `O=c1[nH]nc2n1-c1ccc(Cl)cc1C(c1ccccc1F)=CC2` displayed a melting point of 223 to 225 °C.
Take `CC(=O)OC1CSC(Oc2cccc(-c3cccnc3F)c2)C(OC(C)=O)C1OC(C)=O` (stereo not given): the melting point was 116 °C.
As to `CC1(C)[C@H](CN2CCCCS2(=O)=O)CC[C@]1(C)NCC(=O)N1C[C@@H](F)C[C@H]1C#N`, the melting point was in the range of 186 to 190 °C.
The molecule `CC(C)C(=O)N1CCC(c2nc3cc(-c4ccc(-n5cnnn5)cc4F)ccc3o2)CC1` displayed a melting point of 190 to 194 °C.
As to `CCOC(=O)C(Cl)=Cc1cc(NC(=O)C2=C(C(N)=O)CCCC2)ccc1Cl`, the melting point fell in the range of 185 to 186 °C.
In the case of `Cc1ccsc1C1CC(=O)CC(=O)C1` it was 166 to 168 °C.
In the case of `C=Cc1ccnc(-c2cc(C)ccn2)c1` it was 82 to 86 °C; in that of `COC(=O)CN(C)c1cccc(Br)n1`, 47 to 48 °C.
`NS(=O)(=O)OCCOc1ccc(OCc2ccccc2)cc1` showed a melting point of 125 to 128 °C.
In the case of `CCCCCCC(=O)c1ccc2occc2c1` it was 64 to 67 °C.
Regarding `CC(C)N(CCC(CCN(C(C)C)C(C)C)(C(N)=O)c1ccc(-c2ccccc2)cc1)C(C)C`, the melting point fell in the range of 110 to 111 °C.
In the case of `CC(=NOCCOc1ccc(CC2OC(=O)N(C(c3ccccc3)(c3ccccc3)c3ccccc3)C2=O)cc1)c1ccc(-c2ccccc2)cc1` (stereo not given) it was 193 to 195 °C.
On to `COC(=O)c1ccc(-c2nnc(-c3ccccc3)o2)cc1`, for which the melting point fell in the range of 172 to 173 °C.
Turning to `Cc1c(C)c2c(c(C)c1O)CCC(C)(COc1ccc([N+](=O)[O-])cc1)O2` (stereo not given), the melting point was 114 to 116 °C.
To `Brc1ccc2c(c1-c1c(Br)ccc3c1CCCC3)CCCC2` belongs 146 to 147 °C; to `Cc1oc(-c2ccccc2)nc1CCOc1ccc(CC(C)(C)C(=O)NS(C)(=O)=O)cc1`, 112 to 113 °C; to `Cc1cc(C)c2cccc(OCc3c(Cl)ccc(S(=O)(=O)N4CCC[C@H]4C(=O)NCc4ccc(C=NN)cn4)c3Cl)c2n1`, 128 to 130 °C.
To `COc1ccc(F)cc1C(C)(C)CC(O)(Cc1nc2cc(-c3ccccc3)ccc2o1)C(F)(F)F` (stereo not given) belongs 103 to 104 °C; to `CC(C)(C)c1nc(C(N)=S)ncc1O`, 169 to 171 °C.
In turn, `c1cc(-c2cncnc2)cc(-n2cnc3cc(-c4ccoc4)ccc32)c1` yielded a melting point of 216 to 218 °C.
Turning to `COc1ccc2nc(S(=O)Cc3nccc(OCC(F)(F)F)c3OC)[nH]c2c1` (stereo not given), the melting point fell in the range of 36 to 46 °C.
In the case of `Cc1c(SCCCCSCCn2c([N+](=O)[O-])cnc2C)ccnc1CSc1nc2ccccc2[nH]1` it was 160 to 162 °C.
Molecule `C1=C(CCc2ccccc2)CCN(Cc2n[nH]c3c2CCc2ccccc2-3)C1` gave a melting point of 173 to 174 °C.
Regarding `CC1(C)C=C(c2c[nH]c(-c3ccc(F)cc3)c2-c2ccncc2)CC(C)(C)N1`, the melting point was in the range of 258 to 259 °C.
Turning to `CCOC(=O)[C@H](Cc1ccc(-c2c(OC)cc(COS(C)(=O)=O)cc2OC)cc1)NC(=O)c1c(F)cccc1F`, the melting point was in the range of 125 to 126 °C.
As for `COc1cc2c3c(cccc3c1N1CCCCC1)C(=O)N(O)C2=O`, the melting point lay within 204 to 205 °C.
In turn, `CON(Cc1ccc(F)c(C)c1)C(=O)C1=C(O)C(=O)N(C)C1` displayed a melting point of 160 to 164 °C.
In turn, `CC(=O)n1[nH]c(=O)n(-c2ccccc2)c1=O` showed a melting point of 215 to 218 °C.
To `CC(C)NC(=O)[C@H](C)C[C@H](O)[C@H](CC1CCCCC1)NC(=O)[C@H](Cc1cscn1)NC(=O)OC(C)(C)C` belongs 185 to 187 °C; to `O=S(=O)(NCCc1ccc(Cc2nnn[nH]2)cc1)c1ccc(Cl)cc1`, 168 to 169 °C.
To `COC(=O)N[C@@H](C)CNc1nccc(-c2cn(C(C)C)nc2-c2cc(Cl)cc(NS(C)(=O)=O)c2F)n1` belongs 150 to 152 °C; to `Cc1ccc(S(=O)(=O)n2cc(I)nc2C)cc1`, 112 to 114 °C; to `CCn1cc(C(=O)O)c(=O)c2ccc(C=NNc3ccc(O)cc3)nc21`, 300 °C.
Molecule `CCOC(=O)C1=C(C)NC(=O)N(C(N)=O)C1c1cccc([N+](=O)[O-])c1` (stereo not given) came in with a melting point of 213 to 215 °C.
In the case of `CN1CCC(c2nc(-c3ccccc3)c3ccccc3n2)CC1` it was 83 to 86 °C; in that of `CCC(CO)(CO)NC(=O)Nc1ccccc1CCc1cc(C(C)(C)C)c(O)c(C(C)(C)C)c1`, 145 to 146 °C.
In the case of `COC1(OCC#Cc2ccc(Cl)nc2)C=CC=NC1` (stereo not given), the melting point is 100 to 101 °C.
To `COc1ccc(CCNC(=O)CNc2cc(Cl)ccc2C(N)=O)cc1OC` belongs 168 °C; to `OC1CSC(Oc2ccc(-c3ccoc3)cc2F)C(O)C1O` (stereo not given), 155 °C.
To `CCOC(=O)C(C)NC(=O)N(C)N` (stereo not given) belongs 77 to 79.5 °C; to `CC(=O)n1nc(-c2cnccn2)nc1-c1cnccn1`, 128 to 130 °C.
In the case of `COC(=O)c1c(Br)cc(Br)cc1NC(=O)NCc1ccccc1` it was > 280 °C.
The molecule `O=C1c2cccc([N+](=O)[O-])c2OC12CC2` displayed a melting point of 131 to 134 °C.
In the case of `Cc1c(F)cccc1NS(=O)(=O)c1cc(S(=O)(=O)Nc2cccc(F)c2C)c2cc(O)ccc2c1` it was 128 to 130 °C; in that of `CCCCCCCCCC(O)C#CC(=O)O` (stereo not given), 65 to 66 °C; in that of `CCOC(=O)CC(O)(CC)c1cc2n(c(=O)c1CO)Cc1cc3ccccc3nc1-2` (stereo not given), 157 to 161 °C.
For `O=C1c2ccc(CCCCc3ccccc3)cc2CCN1O`, the melting point lay in the range of 82 to 83 °C.
Molecule `CNC(=O)Nc1snc(C)c1C(=O)OC` showed a melting point of 236 to 237 °C.
The molecule `CC(=O)NC1(c2ccc(Cl)c(C(F)(F)F)c2)CCN(Cc2ccccc2)CC1` returned a melting point of 198 to 199 °C.
`COc1ccc(Nc2nc(N)nc3c(OC)cccc23)c(C)c1` yielded a melting point of 185 to 187 °C.
To `CC(C)=CCN1CCn2c(=O)[nH]c3cc(Cl)cc(c32)C1C` (stereo not given) belongs 139 °C.
In turn, `CC(C)N(C[C@H](O)[C@H](Cc1ccccc1)NC(=O)OCc1ccccc1)NC(=O)OC(C)(C)C` had a melting point of 114 to 115 °C.
In the case of `COc1ccc(S(=O)(=O)N2CCc3cccc(-c4ccc(N(C)C)cc4)c32)cc1` it was 178 to 180 °C; in that of `CCOC(=O)NC(=CC(=O)[C@H](Cc1ccccc1)N(Cc1ccccc1)Cc1ccccc1)Cc1ccccc1`, 91 to 93 °C.
In the case of `CCCn1c(CCOC)nc2c(N)nc3cc(OC4CCN(C(=O)C(C)C)CC4)ccc3c21` it was 165 to 166 °C.
In the case of `COc1ccc(-c2c(C(N)=O)n(C)c(=O)c3ncccc23)cc1` it was > 310 °C.
As for `O=C(Nc1ccccc1)OCc1cn(-c2cc3cc(C(=O)O)c(=O)[nH]c3cc2[N+](=O)[O-])cn1`, the melting point was > 300 °C.
For `COC(=O)c1cccc(NC(=O)N(C)C)c1`, the melting point was found to be 110 °C.
With `CC(CNC(=O)N(CCC(F)(F)F)CCC12CC3CC(CC(C3)C1)C2)Cc1ccncc1` (stereo not given), the melting point was 81.1 to 84.1 °C.
On to `NC(=O)c1nc(-c2cccc(O)c2)nc2c1[nH]c(=O)n2[C@H]1CC[C@H](O)CC1`, for which the melting point lay in the range of 355 to 357 °C.
In the case of `COC(=O)c1cn2c(-c3ccc4ccccc4c3)csc2n1` it was 187 to 188 °C; in that of `O=C(O)CCc1ccc(OCCCc2cc(-c3ccc(C(F)(F)F)cc3)no2)cc1`, 174 to 175 °C.
In the case of `CCOC(=O)c1cc(NC(=O)C(N)Cc2ccccc2)c[nH]1` (stereo not given) it was 139 to 142 °C.
